According to paper PMC9077138, “An investigation on 3-acetyl-7-methoxy-coumarin Schiff bases and their Ru(II) metallates with potent antiproliferative activity and enhanced LDH and NO release” (RSC Advances, 2018):
Where two headings read alike, the source gives them in different places.

Tests used:
[1] = system: human lung carcinoma cancer cell line A549; assay: MTT cytotoxicity assay; format: cell-based; conditions: read-out: IC50 values A549
Description: (§1) The DNA/protein binding studies, antioxidant and antimicrobial studies had shown that the ligands and ruthenium(II) complexes studied here have therapeutic potentials and were subjected to study their anticancer activity. A number of coumarin derivatives have shown considerable anticancer activity against a number of cell lines. All the 3-acetyl-7-methoxy-coumarin-4(N)-substituted thiosemicarbazone ligands, metal precursor [RuHClCO(PPh3)3] and their new cyclometallated Ru(II) complexes were assessed for their cytotoxicity with two human derived cell lines namely human lung carcinoma (A549) and human breast cancer cells (MCF-7) by using MTT assay. For comparison purpose, cisplatin was used as a positive control under identical conditions.
(§2) Cytotoxic activity of the compounds was tested with human lung cancer cell lines A549, human breast cancer cell lines MCF-7 and human normal keratinocyte cells (HaCaT) by using MTT assay, which was done according to the earlier literature methods[77] and IC50 values obtained from nonlinear regression using GraphPad Prism 5.[78] The LDH release[79] and NO release[80] assays of the compounds was evaluated by the earlier reported methods.

[2] = system: human breast cancer cell line MCF-7; assay: MTT cytotoxicity assay; format: cell-based; conditions: read-out: IC50 values MCF-7
Description: as §1, §2

S. pneumonie = assay: In vitro antibacterial assay (zone of inhibition, MIC); format: cell-based, Streptococcus pneumonie; conditions: for zone of inhibition at 50 µg/mL / zone of inhibition at 100 µg/mL: Streptococcus; for Minimum inhibitory concentration (MIC); head: IC50 VALUES / Zone of inhibition: S. pneumonie
Description: (§3) The free ligands and their cyclometallated ruthenium(II) carbonyl complexes were screened for their in vitro antimicrobial activity against certain pathogenic bacterial and fungal species at three different concentrations using disc diffusion method.
(§4) Antimicrobial activities of [RuHClCO(PPh3)3], ligands H2L^1–4 and new organometallic Ru(II) complexes (1–4) were evaluated by agar well diffusion method[76] as reported, by taking Staphylococcus aureus, Streptococcus pneumonie, Pseudomonas aeruginosa, Salmonella paratyphi and fungus such as Candida albicans, Trichophyton rubrum, Aspergillus niger, Aspergillus fumigatus and Candida tropicalis. The above said all test organisms were obtained from the MTCC, Chandigarh, India and Microbiological laboratory, Coimbatore, Tamil Nadu, India. The antimicrobial activity of the test compounds was checked with various concentrations (25 μg ml^−1, 50 μg ml^−1 and 100 μg ml^−1) against all the test pathogens. Gentamicin and ketoconazole were used as positive controls to study the antibacterial and antifungal activities respectively. Each experiment was performed in triplicate and the results are represented as average zone of inhibition and minimum inhibitory concentration of all the test pathogens.

C. albicans = assay: In vitro antifungal assay (zone of inhibition, MIC); format: cell-based, Candida albicans; conditions: for zone of inhibition at 50 µg/mL / zone of inhibition at 100 µg/mL: Candida albicans; for Minimum inhibitory concentration (MIC); head: IC50 VALUES / Zone of inhibition: C. albicans
Description: as §3, §4

HSA = target: T1, HSA (Homo sapiens, UniProt P02768); assay: HSA tryptophan fluorescence quenching; format: binding; conditions: for Kd / Quenching constant kq / Stern–Volmer KSV / number of binding sites n / Binding constant Kbin: HSA; for Kd / Binding constant Kbin: Scatchard equation; for Kd: read-out: Binding constant Kbin (converted); for decrease of HSA fluorescence intensity: compounds 10–100 μM, HSA 10 μM
T1 construct: purchased HiMedia (Mumbai, India)
T1 sequence (P02768 25-609): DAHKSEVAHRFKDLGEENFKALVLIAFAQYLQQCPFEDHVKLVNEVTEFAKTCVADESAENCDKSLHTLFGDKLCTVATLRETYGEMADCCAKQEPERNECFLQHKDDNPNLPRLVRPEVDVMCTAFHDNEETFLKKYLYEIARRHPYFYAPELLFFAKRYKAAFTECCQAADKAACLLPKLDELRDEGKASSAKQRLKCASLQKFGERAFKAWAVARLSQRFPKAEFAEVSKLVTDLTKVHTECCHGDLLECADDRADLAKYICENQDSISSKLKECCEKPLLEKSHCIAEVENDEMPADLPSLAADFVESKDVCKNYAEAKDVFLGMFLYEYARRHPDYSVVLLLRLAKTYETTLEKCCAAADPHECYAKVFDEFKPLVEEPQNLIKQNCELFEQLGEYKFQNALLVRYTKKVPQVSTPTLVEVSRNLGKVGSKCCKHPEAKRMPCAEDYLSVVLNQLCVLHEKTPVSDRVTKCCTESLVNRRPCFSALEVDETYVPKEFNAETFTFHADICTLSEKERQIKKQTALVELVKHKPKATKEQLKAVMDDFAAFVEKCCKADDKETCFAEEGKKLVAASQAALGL
Description: The obtained results confirmed the interaction of the ligands and complexes with serum albumins. The absorption spectra of the serum albumins in the absence and presence of ligands H2L^1–4 and the complexes 1–4 are given in Fig. S29 in the ESI. ^† On adding ligands and complexes 1–4 to albumins, the absorbance intensity of serum albumins was decreased with a red shift of 2 nm. The observed changes indicated a static quenching mechanism of serum albumins by the ligands and complexes (1–4). To obtain a quantitative insight into the quenching progression, the Stern–Volmer quenching constant (KSV) and the quenching constant (Kq) were calculated from the Stern–Volmer equation using the Io/ICorrversus [Q] plot (Table 4).[53] The observed linearity in the plots (Fig. 13) indicated the ability of the compounds to quench the emission intensity of serum albumins and the order of quenching constant of the compounds is complex 3 > complex 2 > complex 1 > complex 4 > H2L^3 > H2L^2 > H2L^1 > H2L^4.
Furthermore, the equilibrium binding constant and number of binding sites were evaluated by using the Scatchard equation. The Kbin values were derived from the graph between log[(Fo − F)/F] and log[Q] From the results, we confirmed that the Ru(II) complexes having a large hydrophobic area can interact more efficiently than the ligands with serum albumins via a static pathway. The higher binding affinity of the complexes over the ligands may be due to the efficient binding of protein moiety with the complexed metal ions. Here, the binding affinities of the complexes with serum albumins followed the same order as those with DNA binding studies, complex 3 > complex 2 > complex 1 > complex 4 > H2L^3 > H2L^2 > H2L^1 > H2L^4. Variation in the binding affinity of the compounds with serum albumins depends on the electron-donating ability of the ligand, i.e. the substitution on the N-terminal nitrogen atom. The binding capability of the compounds to serum albumins increased with the increase in electron-donating ability of the substituent on the terminal nitrogen of the coordinated thiosemicarbazone ligand. The obtained quenching constant and binding constant values of these new cyclometallated ruthenium(II) complexes agree well with those reported for other ruthenium(II) complexes.[31,44,54–56] […]
Serum albumin binding study
Bovine Serum Albumin (BSA) and human serum albumin were purchased from Hi Media, The protein binding study was performed by tryptophan fluorescence quenching experiments using bovine serum albumin (BSA, 10 µM) or human serum albumin (HSA, 10 µM) as the substrate in phosphate buffer (pH= 7.2). Quenching of the emission intensity of tryptophan residues of BSA at 346 nm (excitation wavelength at 280 nm)/ HSA at 345 nm (excitation wavelength at 290 nm) was monitored using ligands and complexes as quenchers with increasing concentration (10-100µM). Synchronous fluorescence spectra of BSA or HSA with various concentrations of the complexes were obtained from 300 to 400 nm when ∆λ = 60 nm and from 290 to 500 nm when ∆λ = 15 nm. For synchronous fluorescence spectra, the same concentrations of serum albumins and the compounds were also used and the spectra were measured at two different Δλ values (difference between the excitation and emission wavelengths of BSA), such as 15 and 60 nm. Fluorescence and synchronous measurements were performed using a 1 cm quartz cell on a JASCO FP 6600 spectrofluorimeter.
The quenching data can be analyzed according to the Stern-Volmer equation, […]
Io/Icorr =K SV[Q]+1 Eq (S2) where Iₒ is the emission intensity in the absence of compound, Icorr is the corrected emission intensity in the presence of compound, KSV is the quenching constant and [Q] is the concentration of the compound.
In order to correct the inner filter effect, the following equation used Icorr = Iobs*10 (Aexc+Aem)/2 where Icorr is the corrected fluorescence value, Iobs the measured fluorescence value, Aexc is […]

[3] = system: human normal keratinocyte cells (HaCaT); assay: MTT cytotoxicity assay; format: cell-based; conditions: 48 h, read-out: IC50 values HaCaT
Description: In order to investigate the selectivity of the compounds for cancer cells rather than normal cell lines, the compounds were also screened for their anticancer activity on the human normal keratinocyte cells (HaCaT).
as §2

Row | Compound | IC50 ([1]; Homo sapiens, A549, 48 h) [µM] | IC50 ([2]; Homo sapiens, MCF7, 48 h) [µM] | zone of inhibition at 50 µg/mL (S. pneumonie) [mm] | zone of inhibition at 100 µg/mL (S. pneumonie) [mm] | zone of inhibition at 50 µg/mL (C. albicans) [mm] | zone of inhibition at 100 µg/mL (C. albicans) [mm] | Kd (HSA) [µM] | IC50 ([3]; Homo sapiens, HaCaT) [µM] | IC50 ([1]; MTT, 48 h) [µM] | IC50 ([2]; MTT, 48 h) [µM] | Minimum inhibitory concentration (MIC); head: IC50 VALUES (S. pneumonie) [µM] | Zone of inhibition (S. pneumonie; 50 µg/ml) [mm] | Zone of inhibition (S. pneumonie; 100 µg/ml) [mm] | Minimum inhibitory concentration (MIC); head: IC50 VALUES (C. albicans) [µM] | Zone of inhibition (C. albicans; 50 µg/ml) [mm] | Zone of inhibition (C. albicans; 100 µg/ml) [mm] | Quenching constant kq (HSA) | Stern–Volmer KSV (HSA) | number of binding sites n (HSA) | Binding constant Kbin (HSA) | further results
1 | CCNC(=S)NN=C(C)c1cc2ccc(OC)cc2oc1=O [H2L^3, ((1E)-1-(1-(7-methoxy-2-oxo-2H-chromen-3-yl)ethylidene) 4(N)-ethylthiosemicarbazone)] | 11.6 ± 0.15 | 11.3 ± 0.21 | 11.2 ± 0.15 | 17.2 ± 0.21 | 11.3 ± 0.12 | 18.2 ± 0.22 | 382 | > 40 |  |  |  |  |  |  |  |  |  |  |  |  | 
2 | COc1ccc2cc(/C(C)=N\NC(=S)Nc3ccccc3)c(=O)oc2c1 [H2L^4, ((1E)-1-(1-(7-methoxy-2-oxo-2H-chromen-3-yl)ethylidene) 4(N)-phenylthiosemicarbazone)] | 13.8 ± 0.18 | 13.1 ± 0.25 | 12.2 ± 0.43 | 18.1 ± 0.22 | 12.3 ± 0.21 | 17.19 ± 0.15 | 858 | > 40 |  |  |  |  |  |  |  |  |  |  |  |  | 
3 | CNC(=S)NN=C(C)c1cc2ccc(OC)cc2oc1=O [H2L^2, ((1E)-1-(1-(7-methoxy-2-oxo-2H-chromen-3-yl)ethylidene) 4(N)-methylthiosemicarbazone)] | 12.1 ± 0.16 | 12.1 ± 0.32 | 12.1 ± 0.33 | 17.3 ± 0.41 | 13.38 ± 0.12 | 18.17 ± 0.15 | 392 | > 40 |  |  |  |  |  |  |  |  |  |  |  |  | 
4 | COc1ccc2cc(C(C)=NNC(N)=S)c(=O)oc2c1 [H2L^1, ((1E)-1-(1-(7-methoxy-2-oxo-2H-chromen-3-yl)ethylidene)thiosemicarbazone)] | 12.6 ± 0.17 | 13.1 ± 0.29 | 12.38 ± 0.12 | 16.4 ± 0.31 | 11.2 ± 0.14 | 17 ± 0.91 | 477 | > 40 |  |  |  |  |  |  |  |  |  |  |  |  | 
5 | COc1ccc2[c]3c(c(=O)oc2c1)C(C)=[N+]1N=C(N)[S][Ru-4]31([C]#[O+])([P+](c1ccccc1)(c1ccccc1)c1ccccc1)[P+](c1ccccc1)(c1ccccc1)c1ccccc1 [Complex 1, [Ru(7MAC-tsc)(CO)(PPh3)2]] |  |  |  |  |  |  |  |  | 2.96 ± 0.07 | 2.86 ± 0.17 | 15.86 ± 0.07 | 12.41±0.36 | 18.51±0.94 | 15.19 ± 0.15 | 12.22±0.41 | 18.91±0.41 | 0.741 ± 0.010 × 10^12 M^−1 s^−1 | 0.741 ± 0.010 × 10^4 M^−1 | 1.1329 ± 0.018 | 2.273 ± 0.017 × 10^4 M^−1 | decrease of HSA fluorescence intensity (HSA): 41.01%; IC50 ([3]; MTT, normal cells): > 40 µM
6 | COc1ccc2[c]3c(c(=O)oc2c1)C(C)=[N+]1N=C(Nc2ccccc2)[S][Ru-4]31([C]#[O+])([P+](c1ccccc1)(c1ccccc1)c1ccccc1)[P+](c1ccccc1)(c1ccccc1)c1ccccc1 [Complex 4, [Ru(7MAC-ptsc)(CO)(PPh3)2]] |  |  |  |  |  |  |  |  | 3.05 ± 0.12 | 3.02 ± 0.05 | 15.89 ± 0.12 | 12.31±0.48 | 16.54±0.12 | 14.65 ± 0.13 | 12.49±0.14 | 17.19±0.66 | 0.675 ± 0.008 × 10^12 M^−1 s^−1 | 0.675 ± 0.008 × 10^4 M^−1 | 0.9118 ± 0.025 | 0.297 ± 0.024 × 10^4 M^−1 | decrease of HSA fluorescence intensity (HSA): 39.80%; IC50 ([3]; MTT, normal cells): > 40 µM
7 | CCNC1=N[N+]2=C(C)c3[c](c4ccc(OC)cc4oc3=O)[Ru-4]2([C]#[O+])([P+](c2ccccc2)(c2ccccc2)c2ccccc2)([P+](c2ccccc2)(c2ccccc2)c2ccccc2)[S]1 [Complex 3, [Ru(7MAC-etsc)(CO)(PPh3)2]] |  |  |  |  |  |  |  |  | 2.37 ± 0.04 | 2.53 ± 0.1 | 14.85 ± 0.09 | 11.11±0.22 | 17.46±0.41 | 13.24 ± 0.16 | 12.29±0.15 | 17.73±0.21 | 1.189 ± 0.030 × 10^12 M^−1 s^−1 | 1.189 ± 0.030 × 10^4 M^−1 | 1.2027 ± 0.030 | 7.194 ± 0.041 × 10^4 M^−1 | decrease of HSA fluorescence intensity (HSA): 53.45%; IC50 ([3]; MTT, normal cells): > 40 µM
8 | CNC1=N[N+]2=C(C)c3[c](c4ccc(OC)cc4oc3=O)[Ru-4]2([C]#[O+])([P+](c2ccccc2)(c2ccccc2)c2ccccc2)([P+](c2ccccc2)(c2ccccc2)c2ccccc2)[S]1 [Complex 2, [Ru(7MAC-mtsc)(CO)(PPh3)2]] |  |  |  |  |  |  |  |  | 2.93 ± 0.07 | 2.62 ± 0.07 | 16.43 ± 0.09 | 13.21±0.13 | 17.14±0.12 | 13.59 ± 0.15 | 12.45±0.31 | 16.28±0.10 | 1.088 ± 0.030 × 10^12 M^−1 s^−1 | 1.088 ± 0.030 × 10^4 M^−1 | 1.1859 ± 0.004 | 6.341 ± 0.039 × 10^4 M^−1 | decrease of HSA fluorescence intensity (HSA): 50.56%; IC50 ([3]; MTT, normal cells): > 40 µM
